Experimental data published in ChEMBL document CHEMBL3407349, “The discovery of Polo-like kinase 4 inhibitors: identification of (1R,2S).2-(3-((E).4-(((cis).2,6-dimethylmorpholino)methyl)styryl). 1H.indazol-6-yl)-5'-methoxyspiro[cyclopropane-1,3'-indolin]-2'-one (CFI-400945) as a potent, orally active antitumor agent” (J Med Chem, 2015).
pEC50, pIC50: −log10 of the molar value. Blank lines part the entries; values can stand above or below the compound they belong to.

Legend:
A549 [1] = test: Antitumor activity against human A549 cells xenografted in CB-17 SCID mouse assessed as tumor growth inhibition at 9.4 mg/kg, po qd administered for 21 days; format: functional; conditions: A549, 504 h, read-out: TGI
[2] = Antitumor activity against human HCT116 cells xenografted in athymic CD-1 nude mouse assessed as tumor growth inhibition at MTD, po qd administered 1-on/3-off schedule up to day 21 measured on day 35; format: functional, HCT-116
Rattus norvegicus = test: Clearance in Sprague-Dawley rat at 1 mg/kg, iv; format: ADME, organism-based; parameters: dose 1 mg/kg, route intravenous; conditions: in vivo
[3] = Half life in dog liver microsomes; conditions: liver microsomes
[4] = Oral bioavailability in beagle dog at 5 mg/kg; format: ADME, organism-based, Canis lupus familiaris; conditions: in vivo
[5] = AUC(infinity) in Sprague-Dawley rat at 1 mg/kg, iv; format: ADME, organism-based; parameters: time infinity, dose 1 mg/kg, route intravenous; conditions: plasma
[6] = Growth inhibition of human SKBR3 cells after 5 days by SRB assay; format: functional; conditions: SK-BR-3, 120 h
Canis familiaris = test: Clearance in beagle dog at 1 mg/kg, iv; format: ADME, organism-based, Canis lupus familiaris; parameters: dose 1 mg/kg, route intravenous; conditions: in vivo
[7] = Half life in beagle dog at 1 mg/kg, iv; format: ADME, organism-based, Canis lupus familiaris; parameters: dose 1 mg/kg, route intravenous; conditions: in vivo
[8] = Growth inhibition of human COLO205 cells after 5 days by SRB assay; format: functional; conditions: COLO 205, 120 h
Mus musculus [9] = test: Toxicity in CB-17 SCID mouse xenografted with human MDA-MB-468 cells assessed as loss in body weight at 3 to 9.4 mg/kg, po qd administered for 21 days relative to control; format: organism-based; parameters: dose 3-9.4 mg/kg, route oral; conditions: in vivo, 504 h
[10] = AUC in athymic CD1 nude mouse at 25 mg/kg, po by LC/MS/MS analysis; format: ADME, organism-based; parameters: dose 25 mg/kg, route oral; conditions: plasma
[11] = AUC(infinity) in Sprague-Dawley rat at 5 mg/kg, po; format: ADME, organism-based; parameters: dose 5 mg/kg, route oral, time infinity; conditions: plasma
[12] = Half life in human liver microsomes; conditions: liver microsomes
[13] = AUC(infinity) in beagle dog at 5 mg/kg, po; format: ADME, organism-based, Canis lupus familiaris; parameters: time infinity, dose 5 mg/kg, route oral; conditions: plasma
[14] = AUC(infinity) in beagle dog at 1 mg/kg, iv; format: ADME, organism-based, Canis lupus familiaris; parameters: time infinity, dose 1 mg/kg, route intravenous; conditions: plasma
[15] = Growth inhibition of human BT20 cells after 5 days by SRB assay; format: functional; conditions: BT-20, 120 h
MDA-MB-468 [16] = test: Antitumor activity against human MDA-MB-468 cells xenografted in CB-17 SCID mouse assessed as tumor growth inhibition at 3 mg/kg, po qd administered for 21 days; format: functional; conditions: MDA-MB-468, 504 h, read-out: TGI
[17] = Cmax in athymic CD1 nude mouse at 25 mg/kg, po by LC/MS/MS analysis; format: ADME, organism-based; parameters: dose 25 mg/kg, route oral; conditions: in vivo
[18] = Toxicity in po dosed athymic CD-1 nude mouse xenografted with human HCT116 cells administered qd 1-on/3-off schedule up to day 21; format: organism-based, HCT-116; conditions: CD-1 athymic nude, in vivo
[19] = Antitumor activity against human HCT116 cells xenografted in athymic CD-1 nude mouse assessed as tumor growth inhibition at MTD, po qd administered 1-on/3-off schedule up to day 21; format: functional, HCT-116
Cytochrome P450 2D6 = Cytochrome P450 2D6 (Homo sapiens, UniProt P10635); test: Inhibition of CYP2D6 (unknown origin) by fluorescence assay; format: ADME
Sequence of Cytochrome P450 2D6 (P10635 whole entry): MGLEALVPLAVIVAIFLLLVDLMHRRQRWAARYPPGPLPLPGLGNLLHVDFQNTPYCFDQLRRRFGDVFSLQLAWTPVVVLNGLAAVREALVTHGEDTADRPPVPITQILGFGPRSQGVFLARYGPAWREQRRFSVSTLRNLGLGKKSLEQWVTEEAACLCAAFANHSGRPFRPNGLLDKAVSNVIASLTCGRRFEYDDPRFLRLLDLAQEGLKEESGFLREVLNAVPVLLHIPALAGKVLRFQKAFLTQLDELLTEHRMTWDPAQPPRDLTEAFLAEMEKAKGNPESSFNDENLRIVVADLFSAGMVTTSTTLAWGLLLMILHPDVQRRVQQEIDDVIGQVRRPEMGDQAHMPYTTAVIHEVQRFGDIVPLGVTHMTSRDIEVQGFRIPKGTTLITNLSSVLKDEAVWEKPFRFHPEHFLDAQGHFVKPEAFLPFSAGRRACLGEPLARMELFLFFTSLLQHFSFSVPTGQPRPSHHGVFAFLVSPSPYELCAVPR

Cytochrome P450 1A2 = biological target: T1, Cytochrome P450 1A2 (Homo sapiens, UniProt P05177); test: Inhibition of CYP1A2 (unknown origin) by fluorescence assay; format: ADME
T1 sequence (P05177 whole entry): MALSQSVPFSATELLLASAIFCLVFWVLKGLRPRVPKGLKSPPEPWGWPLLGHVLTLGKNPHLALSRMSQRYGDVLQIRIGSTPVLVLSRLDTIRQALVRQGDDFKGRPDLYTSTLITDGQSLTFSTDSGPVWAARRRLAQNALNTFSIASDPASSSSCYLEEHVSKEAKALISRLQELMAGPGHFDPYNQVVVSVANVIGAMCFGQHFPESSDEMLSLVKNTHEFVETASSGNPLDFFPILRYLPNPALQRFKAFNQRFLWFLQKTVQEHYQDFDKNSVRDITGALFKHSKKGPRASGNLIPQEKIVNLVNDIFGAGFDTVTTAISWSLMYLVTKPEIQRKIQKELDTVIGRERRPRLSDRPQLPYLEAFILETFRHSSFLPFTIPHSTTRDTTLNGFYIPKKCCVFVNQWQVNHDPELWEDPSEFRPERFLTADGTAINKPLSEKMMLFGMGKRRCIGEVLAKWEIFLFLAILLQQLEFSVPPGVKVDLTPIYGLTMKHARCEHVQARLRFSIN

[20] = Growth inhibition of human HCT116 cells after 5 days by SRB assay; format: functional; conditions: HCT-116, 120 h
[21] = Antitumor activity against human SW620 cells xenografted in CB-17 SCID mouse assessed as tumor growth inhibition at 3 mg/kg, po qd administered for 21 days; format: functional; conditions: SW-620, 504 h, read-out: TGI
[22] = Growth inhibition of human OVCAR3 cells after 5 days by SRB assay; format: functional; conditions: OVCAR-3, 120 h
[23] = Half life in mouse liver microsomes; conditions: liver microsomes
Angiopoietin-1 receptor [24] = biological target: T2, Angiopoietin-1 receptor (Homo sapiens, UniProt Q02763); test: Inhibition of TIE2 (unknown origin) by FRET analysis
T2 sequence (Q02763 whole entry): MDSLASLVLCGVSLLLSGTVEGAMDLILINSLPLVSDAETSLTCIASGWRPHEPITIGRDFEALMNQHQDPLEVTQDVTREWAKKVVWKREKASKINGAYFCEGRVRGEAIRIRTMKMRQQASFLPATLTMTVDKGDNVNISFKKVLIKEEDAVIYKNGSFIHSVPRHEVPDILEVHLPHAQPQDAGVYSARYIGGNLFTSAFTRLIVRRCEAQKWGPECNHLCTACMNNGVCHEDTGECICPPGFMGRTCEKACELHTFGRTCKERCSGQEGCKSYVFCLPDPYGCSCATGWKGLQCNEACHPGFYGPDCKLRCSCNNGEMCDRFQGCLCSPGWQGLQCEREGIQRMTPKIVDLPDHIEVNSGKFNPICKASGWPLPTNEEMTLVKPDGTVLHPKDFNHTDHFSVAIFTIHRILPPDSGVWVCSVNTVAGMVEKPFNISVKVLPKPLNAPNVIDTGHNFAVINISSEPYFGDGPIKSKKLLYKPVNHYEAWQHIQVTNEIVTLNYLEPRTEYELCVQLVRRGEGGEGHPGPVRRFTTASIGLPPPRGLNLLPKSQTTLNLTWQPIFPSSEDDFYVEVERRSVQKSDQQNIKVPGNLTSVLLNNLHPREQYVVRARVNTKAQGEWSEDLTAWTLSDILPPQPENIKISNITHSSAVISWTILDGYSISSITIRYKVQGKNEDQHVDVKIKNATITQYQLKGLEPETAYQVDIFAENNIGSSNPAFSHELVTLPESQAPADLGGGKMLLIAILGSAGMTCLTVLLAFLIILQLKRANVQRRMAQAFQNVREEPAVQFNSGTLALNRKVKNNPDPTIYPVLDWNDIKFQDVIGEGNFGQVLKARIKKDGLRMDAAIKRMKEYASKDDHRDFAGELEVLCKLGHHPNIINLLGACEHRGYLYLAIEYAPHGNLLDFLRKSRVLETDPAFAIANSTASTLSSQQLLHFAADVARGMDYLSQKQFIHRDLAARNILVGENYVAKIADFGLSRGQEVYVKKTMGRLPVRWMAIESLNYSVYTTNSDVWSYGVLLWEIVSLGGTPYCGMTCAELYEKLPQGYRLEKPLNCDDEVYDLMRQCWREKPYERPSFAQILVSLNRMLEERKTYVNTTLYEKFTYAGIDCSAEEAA

A549 [25] = test: Antitumor activity against human A549 cells xenografted in CB-17 SCID mouse assessed as tumor growth inhibition at 3 mg/kg, po qd administered for 21 days; format: functional; conditions: A549, 504 h, read-out: TGI
Cytochrome P450 2C19 = Cytochrome P450 2C19 (Homo sapiens, UniProt P33261); test: Inhibition of CYP2C19 (unknown origin) by fluorescence assay
Sequence of Cytochrome P450 2C19 (P33261 whole entry): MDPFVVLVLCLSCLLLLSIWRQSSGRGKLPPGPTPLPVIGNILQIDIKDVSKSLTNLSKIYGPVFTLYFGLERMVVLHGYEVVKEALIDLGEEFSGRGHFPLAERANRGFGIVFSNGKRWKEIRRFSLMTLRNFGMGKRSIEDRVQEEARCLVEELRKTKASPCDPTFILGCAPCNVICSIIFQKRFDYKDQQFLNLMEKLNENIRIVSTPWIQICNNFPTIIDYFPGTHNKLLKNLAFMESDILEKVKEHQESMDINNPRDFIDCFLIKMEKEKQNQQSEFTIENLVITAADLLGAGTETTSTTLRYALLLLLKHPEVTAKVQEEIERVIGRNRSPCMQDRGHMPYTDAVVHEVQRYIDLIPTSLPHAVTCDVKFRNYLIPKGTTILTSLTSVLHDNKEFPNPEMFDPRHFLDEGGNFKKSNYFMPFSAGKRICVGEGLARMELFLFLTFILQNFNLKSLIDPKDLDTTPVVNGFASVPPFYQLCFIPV

MDA-MB-231 = test: Growth inhibition of human MDA-MB-231 cells after 5 days by SRB assay; format: functional
[26] = Growth inhibition of human CAL51 cells after 5 days by SRB assay; format: functional; conditions: CAL-51, 120 h
MDA-MB-468 [27] = test: Antitumor activity against human MDA-MB-468 cells xenografted in CB-17 SCID mouse assessed as tumor growth inhibition at 9.4 mg/kg, po qd administered for 21 days; format: functional; conditions: MDA-MB-468, 504 h, read-out: TGI
[28] = Antitumor activity against human SW620 cells xenografted in CB-17 SCID mouse assessed as tumor growth inhibition at 9.4 mg/kg, po qd administered for 21 days; format: functional; conditions: SW-620, 504 h, read-out: TGI
[29] = (§1) Growth inhibition of human HMEC cells after 5 days by SRB assay; format: cell-based; conditions: HMEC cells
Mus musculus [30] = test: Toxicity in CB-17 SCID mouse xenografted with human MDA-MB-468 cells assessed as mortality at 3 to 9.4 mg/kg, po qd administered for 21 days; format: organism-based; parameters: dose 3-9.4 mg/kg, route oral; conditions: in vivo, 504 h
[31] = Half life in rat liver microsomes; conditions: liver microsomes
[32] = Oral bioavailability in Sprague-Dawley rat at 5 mg/kg; format: ADME, organism-based; conditions: in vivo
MCF7 = test: Growth inhibition of human MCF7 cells after 5 days by SRB assay; format: functional
MDA-MB-468 [33] = test: Growth inhibition of human MDA-MB-468 cells after 5 days by SRB assay; format: functional
[34] = Half life in Sprague-Dawley rat at 1 mg/kg, iv; format: ADME, organism-based; parameters: dose 1 mg/kg, route intravenous; conditions: in vivo
A549 [35] = test: Growth inhibition of human A549 cells after 5 days by SRB assay; format: functional; conditions: A549, 120 h
SW-620 = test: Growth inhibition of human SW620 cells after 5 days by SRB assay; format: functional; conditions: SW-620, 120 h
Cytochrome P450 2C9 = Cytochrome P450 2C9 (Homo sapiens, UniProt P11712); test: Inhibition of CYP2C9 (unknown origin) by fluorescence assay
Sequence of Cytochrome P450 2C9 (P11712 whole entry): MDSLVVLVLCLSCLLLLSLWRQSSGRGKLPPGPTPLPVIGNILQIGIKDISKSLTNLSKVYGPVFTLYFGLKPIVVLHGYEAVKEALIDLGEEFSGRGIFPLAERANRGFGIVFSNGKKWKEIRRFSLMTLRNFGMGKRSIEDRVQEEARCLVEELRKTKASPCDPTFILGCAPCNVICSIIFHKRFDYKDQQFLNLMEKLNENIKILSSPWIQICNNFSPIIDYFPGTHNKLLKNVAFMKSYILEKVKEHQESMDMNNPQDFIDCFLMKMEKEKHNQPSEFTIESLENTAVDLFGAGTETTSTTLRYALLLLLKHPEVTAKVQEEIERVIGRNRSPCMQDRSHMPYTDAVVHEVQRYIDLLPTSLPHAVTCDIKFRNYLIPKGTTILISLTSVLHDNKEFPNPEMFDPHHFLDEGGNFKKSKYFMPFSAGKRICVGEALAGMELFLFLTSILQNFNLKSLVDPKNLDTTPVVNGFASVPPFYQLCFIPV

HCC1954 = test: Growth inhibition of human HCC1954 cells after 5 days by SRB assay; format: functional; conditions: Homo sapiens, HCC1954, 120 h
Angiopoietin-1 receptor [36] = biological target: T2, Angiopoietin-1 receptor; test: Inhibition of TIE2 (unknown origin) by cell-based assay
Cytochrome P450 3A4 [37] = biological target: T3, Cytochrome P450 3A4 (Homo sapiens, UniProt P08684); test: Inhibition of CYP3A4 (unknown origin) using DBF as substrate by fluorescence assay
T3 sequence (P08684 whole entry): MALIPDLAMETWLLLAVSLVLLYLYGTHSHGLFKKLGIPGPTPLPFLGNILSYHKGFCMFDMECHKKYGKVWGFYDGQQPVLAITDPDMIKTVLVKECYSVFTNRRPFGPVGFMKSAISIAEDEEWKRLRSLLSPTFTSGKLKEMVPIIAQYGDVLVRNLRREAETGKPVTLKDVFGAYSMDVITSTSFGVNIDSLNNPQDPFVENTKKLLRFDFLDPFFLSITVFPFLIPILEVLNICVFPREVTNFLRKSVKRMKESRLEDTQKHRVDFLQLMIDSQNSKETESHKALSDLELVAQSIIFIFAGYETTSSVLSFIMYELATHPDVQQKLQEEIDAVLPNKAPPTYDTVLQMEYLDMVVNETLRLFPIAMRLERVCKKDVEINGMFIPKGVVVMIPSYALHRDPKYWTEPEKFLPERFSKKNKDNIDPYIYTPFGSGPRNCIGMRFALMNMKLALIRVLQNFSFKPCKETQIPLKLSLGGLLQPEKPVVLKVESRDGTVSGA

Cytochrome P450 3A4 [38] = biological target: T3, Cytochrome P450 3A4; test: Inhibition of CYP3A4 (unknown origin) using BFC as substrate by fluorescence assay
HMEC = test: as §1; format: cell-based; conditions: hmec, 120 h

Structure (SMILES): COc1ccc2c(c1)[C@]1(C[C@H]1c1ccc3c(/C=C/c4ccc(CN5C[C@@H](C)O[C@@H](C)C5)cc4)n[nH]c3c1)C(=O)N2 [OCIFISERTIB]
- inhibition in vivo at 9.4 mg/kg (A549 [1]): 70%
- TGI [2]: 93%
- clearance (Rattus norvegicus): 31.7 mL/min/kg
- half-life [3]: 43 min
- bioavailability [4]: 66%
- AUC(0-inf) [5]: 534 ng·h/mL
- GI50 [6]: 5300 nM
- clearance (Canis familiaris): 16 mL/min/kg
- half-life [7]: 126 min
- GI50 [8]: 17 nM
- Activity (Mus musculus [9]): > 20%
- AUC [10]: 9800 ng·h/mL
- AUC(0-inf) [11]: 767 ng·h/mL
- half-life [12]: > 60 min
- AUC(0-inf) [13]: 3460 ng·h/mL
- AUC(0-inf) [14]: 1050 ng·h/mL
- GI50 [15]: 58 nM
- inhibition in vivo at 3 mg/kg (MDA-MB-468 [16]): 57%
- Cmax [17]: 2200 ng/mL
- MTD at 21 days [18]: 39 mg/kg
- TGI [19]: 98%
- inhibition (INH) (Cytochrome P450 2D6): Not Active
- inhibition (INH) (Cytochrome P450 1A2): Not Active
- GI50 [20]: 4 nM
- inhibition in vivo at 3 mg/kg [21]: 7%
- GI50 [22]: 18 nM
- half-life [23]: 24 min
- pIC50 (Angiopoietin-1 receptor [24]): 7.66
- inhibition in vivo at 3 mg/kg (A549 [25]): 32%
- pIC50 (Cytochrome P450 2C19): 5.85
- GI50 (MDA-MB-231; Homo sapiens, MDA-MB-231, 120 h): 8600 nM
- GI50 [26]: 260 nM
- inhibition in vivo at 9.4 mg/kg (MDA-MB-468 [27]): 77%
- inhibition in vivo at 9.4 mg/kg [28]: 86%
- GI50 at 120 h [29]: 9000 nM
- Activity (Mus musculus [30]): Non-toxic
- half-life [31]: 53 min
- bioavailability [32]: 21%
- GI50 (MCF7; Homo sapiens, MCF7, 120 h): 8 nM
- GI50 (MDA-MB-468 [33]; Homo sapiens, MDA-MB-468, 120 h): 6 nM
- half-life [34]: 120 min
- GI50 (A549 [35]): 5 nM
- GI50 (SW-620): 380 nM
- pIC50 (Cytochrome P450 2C9): 6.03
- GI50 (HCC1954): 5 nM
- pEC50 (Angiopoietin-1 receptor [36]): 6.93

- pIC50 (Cytochrome P450 3A4 [37]): 5.00
- pIC50 (Cytochrome P450 3A4 [38]): 5.30
- AUC [10]: 260 ng·h/mL
- half-life [12]: > 60 min
- Cmax [17]: 110 ng/mL
- inhibition (INH) (Cytochrome P450 2D6): Not Active
- inhibition (INH) (Cytochrome P450 1A2): Not Active
- GI50 (MDA-MB-231): 820 nM
- GI50 (MCF7): 250 nM
- GI50 (MDA-MB-468 [33]): < 1 nM
Structure (SMILES): CN(C)Cc1ccc(/C=C/c2n[nH]c3cc([C@@H]4C[C@@]45C(=O)Nc4ccccc45)ccc23)cc1
- GI50 (HMEC): 19000 nM
